Source: article PMC8153904 (ACS Omega, 2021)
“Also recorded” adds a separate entry of the source.

Key:
CHIKV-NanoLuc = experiment: Antiviral activity assay, CHIKV-NanoLuc at low MOI in BHK-21 cells; assay type: cell-based, Chikungunya virus; conditions: for EC50: Chikungunya virus, BHK-21, 16 h; for viral infection at 100 μM / concentration at which the inhibitory effect appeared: mixtures of four stereoisomers; for concentration at which the inhibitory effect appeared: tested at 1 up to 100 μM
Cytotoxicity assay = assay type: cell-based, hamster; conditions: hamster, BHK-21 cells, CC50, BHK-21 cells, 24 h, MTT
BHK-21 cells = experiment: Cytotoxicity assay; assay type: cell-based, hamster; conditions: for cytotoxic effect over the tested concentrations: concentrations of 1 up to 100 μM, mixtures of four stereoisomers

SMILES	EC50 (CHIKV-NanoLuc) [µM]	CC50 at 24 h (Cytotoxicity assay) [µM]	concentration at which cytotoxicity appeared (BHK-21 cells)	also measured
Cc1cc(C)cc([C@@H]2C[C@H]2C(=O)NC(C(=O)NC2CCCC2)c2ccc(C)c(C)c2)c1 (stereo partly drawn) [D164]	50.5	> 100		
Cc1cc(C)cc([C@@H]2C[C@H]2C(=O)NC(C(N)=O)c2ccc(C)c(C(F)(F)F)c2)c1 (stereo partly drawn) [D119]	32	> 100		
Cc1cc(F)cc([C@@H]2C[C@H]2C(=O)NC(C(N)=O)c2ccc(C)c(C(F)(F)F)c2)c1 (stereo partly drawn) [D127]	29.6	> 100	more than 100 μM	
Cc1cc(C)cc([C@@H]2C[C@H]2C(=O)NC(C(=O)NC(C)(C)C)c2ccc(C)c(C)c2)c1 (stereo partly drawn) [D161]	13.9	> 100		viral infection at 100 μM (CHIKV-NanoLuc; BHK-21 cells): almost completely inhibited; concentration at which the inhibitory effect appeared (CHIKV-NanoLuc; BHK-21 cells): 10 µM; cytotoxicity effect at 100 μM (BHK-21 cells; 100 μM, mixture of four stereoisomers): moderate cytotoxicity effect; also recorded: moderate cytotoxic effect
COc1ccc(CNC(=O)C(NC(=O)[C@@H]2C[C@H]2c2cc(C)cc(F)c2)c2ccc(C)c(C(F)(F)F)c2)c(OC)c1 (stereo partly drawn) [D166]		> 100		antiviral (anti-CHIKV) activity, in words (CHIKV-NanoLuc; BHK-21 cells, CHIKV-NanoLuc, low MOI): complete loss of the activity
Cc1cc(C)cc([C@@H]2C[C@H]2C(=O)NC(C(=O)NCc2ccccc2)c2ccc(C)c(C)c2)c1 (stereo partly drawn) [D160]	10.5	> 100		viral infection at 100 μM (CHIKV-NanoLuc; BHK-21 cells): almost completely inhibited; concentration at which the inhibitory effect appeared (CHIKV-NanoLuc; BHK-21 cells): 10 µM; cytotoxic effect over the tested concentrations (BHK-21 cells): no cytotoxic effect
Cc1cc(C)cc([C@@H]2C[C@H]2C(=O)NC(C(N)=O)c2ccc(C)c(C)c2)c1 (stereo partly drawn) [D27]		< 0.1	100 nM	cytotoxic effect over the tested concentrations (BHK-21 cells): toxic at all concentrations
Cc1cc(C)cc([C@@H]2C[C@H]2C(=O)NC(C(=O)NC2CC2)c2ccc(C)c(C)c2)c1 (stereo partly drawn) [D163]			more than 10 μM	antiviral activity at the maximum nontoxic concentration (CHIKV-NanoLuc; BHK-21 cells, CHIKV-NanoLuc): no antiviral activity
